Usually IC50 stands for the concentration at which inhibition is half-maximal.

Molecules are shown by their SMILES. Read-outs that look alike come from different tables or passages of the source.

The source of these data is patent US20250215029A1 (Recludix Pharma, Inc., priority 2022, published 2025).

For assay [1], the target named is T1, Recombinant STAT3 protein (STAT3 (G127-I722)) (Homo sapiens, UniProt P40763).
T1 construct: Recombinant STAT3 protein (STAT3 (G127-I722))
Nature of the assay: STAT3 Fluorescence Polarization (FP) Assay. The class given is binding. The note with it: probe 5-FAM-GpYLPQTV-NH2 2 nM, 45-minute incubation. Here is the method: STAT3 Fluorescence Polarization (FP) Assay
An FP assay was developed to determine IC50 values for test substances. Recombinant STAT3 protein (STAT3 (G127-I722)) at 25 nM was combined with a fluorescently labeled, phosphotyrosine peptide probe (5-FAM-GpYLPQTV-NH2) at 2 nM in FP buffer (10 mM HEPES pH 7.4, 50 mM NaCl, 1 mM EDTA, 0.05% Tween 20.2 mM DTT). 50 μL of STAT3-probe mixture was added to serial diluted compounds in black, 96-well plates (Greiner BioOne 655076) to a final concentration of 1% DMSO. Reaction components were mixed, and FP was measured after 45-minute incubation at room temperature using a Tecan Spark multimode plate reader. FP signal (mP) was plotted against the log concentration of the test substances and IC50 values were calculated by nonlinear regression analysis using GraphPad Prism software. For STAT3 FP assay, A=≤100 nM; B=>100-1000 nM; C=>1-10 μM; and D=>10 μM.
Background: Fluorescence polarisation rises when a labelled molecule tumbles more slowly, as on binding a larger partner.

In assay [2] the target is T2, Recombinant STAT6 protein (STAT6 (W123-T658)) (Homo sapiens, UniProt P42226).
T2 construct: Recombinant STAT6 protein (STAT6 (W123-T658))
T2 sequence (P42226 123-658): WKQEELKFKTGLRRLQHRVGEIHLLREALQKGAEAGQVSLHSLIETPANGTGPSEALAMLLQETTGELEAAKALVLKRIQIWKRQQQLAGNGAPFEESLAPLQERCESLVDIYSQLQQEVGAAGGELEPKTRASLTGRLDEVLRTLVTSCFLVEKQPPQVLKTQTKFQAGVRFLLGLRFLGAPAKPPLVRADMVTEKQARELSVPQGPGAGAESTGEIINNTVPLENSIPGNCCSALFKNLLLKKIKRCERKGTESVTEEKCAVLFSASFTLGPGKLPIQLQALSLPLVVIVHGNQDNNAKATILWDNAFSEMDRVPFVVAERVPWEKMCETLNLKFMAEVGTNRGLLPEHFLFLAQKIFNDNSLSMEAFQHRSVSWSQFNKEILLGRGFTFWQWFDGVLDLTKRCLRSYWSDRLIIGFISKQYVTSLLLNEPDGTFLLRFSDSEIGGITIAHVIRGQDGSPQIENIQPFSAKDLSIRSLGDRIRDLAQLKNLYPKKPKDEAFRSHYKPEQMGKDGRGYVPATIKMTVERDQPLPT
Description: STAT6 Fluorescence Polarization (FP) Assay. The class given is binding. Particulars: probe 5-FAM-Ap[…]-NH2 2 nM, 45-minute incubation. Here is the method: STAT6 Fluorescence Polarization (FP) Assay
An FP assay was developed to determine IC50 values for test substances. Recombinant STAT6 protein (STAT6 (W123-T658)) at 250 nM was combined with a fluorescently labeled, phosphotyrosine peptide probe (5-FAM-Ap[…]-NH2) at 2 nM in FP buffer (10 mM HEPES pH 7.4, 50 mM NaCl, 1 mM EDTA, 0.05% Tween 20, 2 mM DTT). 50 μL of STAT6-probe mixture was added to serial diluted compounds in black, 96-well plates (Greiner BioOne 655076) to a final concentration of 1% DMSO. Reaction components were mixed, and FP was measured after 45-minute incubation at room temperature using a Tecan Spark multimode plate reader. FP signal (mP) was plotted against the log concentration of the test substances and IC50 values were calculated by nonlinear regression analysis using GraphPad Prism software. For STAT6 FP assay, A=≤300 nM; B=>300-3000 nM; C=>3-30 μM; and D=>30 μM.

The mark [3] stands for this setting: STAT3 25 nM, read-out: STAT3 (FP assay IC50).
Setting [4] is: STAT6 250 nM, read-out: STAT6 (FP assay IC50).
Where [5] appears, read: STAT3 (G127-I722) 25 nM, read-out: STAT3 (FP assay IC50 class).
Where [6] appears, read: STAT6 (W123-T658) 250 nM, read-out: STAT6 (FP assay IC50 class).

T1 sequence (P40763 127-722): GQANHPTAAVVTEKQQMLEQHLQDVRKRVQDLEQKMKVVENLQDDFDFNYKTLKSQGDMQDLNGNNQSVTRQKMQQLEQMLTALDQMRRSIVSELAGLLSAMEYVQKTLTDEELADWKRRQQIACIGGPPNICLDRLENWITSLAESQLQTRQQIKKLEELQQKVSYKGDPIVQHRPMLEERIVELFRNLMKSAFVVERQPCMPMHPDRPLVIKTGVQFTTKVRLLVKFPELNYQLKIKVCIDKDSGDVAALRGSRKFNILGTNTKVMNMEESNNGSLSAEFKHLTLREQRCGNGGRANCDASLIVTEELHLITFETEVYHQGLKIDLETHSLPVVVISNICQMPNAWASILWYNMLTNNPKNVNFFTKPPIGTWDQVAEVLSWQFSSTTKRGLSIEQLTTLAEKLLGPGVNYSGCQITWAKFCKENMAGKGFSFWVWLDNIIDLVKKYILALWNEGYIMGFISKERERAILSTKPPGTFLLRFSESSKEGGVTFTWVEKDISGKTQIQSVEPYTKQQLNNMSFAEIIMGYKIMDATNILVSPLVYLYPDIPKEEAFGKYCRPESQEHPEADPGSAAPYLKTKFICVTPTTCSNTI

Consider `N#C[C@@H]1CN(C(=O)[C@@H]2CC[C@@H]3C[C@@H](N4CCC4)CC[C@H](NC(=O)c4cc5cc(C(F)(F)P(=O)(O)O)ccc5s4)C(=O)N32)C[C@H]1c1ccccc1` (relative stereo) [Compound 21, ((2-(((3S,6S,9S,10aR)-9-(azetidin-1-yl)-3-(rel-(trans)-3-cyano-4-phenylpyrrolidine-1-carbonyl)-5-oxodecahydropyrrolo [1,2-a]azocin-6-yl)carbamoyl)benzo[b]thiophen-5-yl)difluoromethyl) phosphonic acid], for which the IC50 was 1000 to 10000 nM in assay [1] (setting [3]) and at most 300 nM in assay [2] (setting [4]).
In the case of `N#C[C@H]1CN(C(=O)[C@@H]2CC[C@@H]3/C=C\CC[C@H](NC(=O)c4cc5cc(C(F)(F)P(=O)(O)O)ccc5s4)C(=O)N32)C[C@@H]1c1ccccc1` (relative stereo) [Compound 27, ((2-(((3S,6S,10aR,Z)-3-(rel-trans)3-cyano-4-phenylpyrrolidine-1-carbonyl)-5-oxo-1,2,3,5,6,7,8,10a-octahydropyrrolo[1,2-a]azocin-6-yl)carbamoyl)benzo[b]thiophen-5-yl) difluoromethyl) phosphonic acid], the concentration for half-maximal inhibition (IC50) was 1000 to 10000 nM in assay [1] (setting [3]) and at most 300 nM in assay [2] (setting [4]).
The corresponding values for `N#C[C@@H]1CN(C(=O)[C@@H]2C[C@@H](O)[C@@H]3CCCCC[C@H](NC(=O)c4cc5cc(C(F)(F)P(=O)(O)O)ccc5s4)C(=O)N23)C[C@H]1c1ccccc1` (relative stereo) [Compound 76, ((2-(((1R,3S,6S, 11aS)-3-(rel-(trans)-3-cyano-4-phenylpyrrolidine-1-carbonyl)-1-hydroxy-5-oxodecahydro-1H-pyrrolo[1,2-a]azonin-6-yl)carbamoyl)benzo[b]thiophen-5-yl)difluoromethyl) phosphonic acid] are 1000 to 10000 nM and at most 300 nM.
The corresponding values for `N#C[C@@H]1CN(C(=O)[C@@H]2CC[C@@H]3CCCC[C@H](NC(=O)c4ccc5ccc(C(F)(F)P(=O)(O)O)cc5c4)C(=O)N32)C[C@H]1c1cc[nH]c(=O)c1` (relative stereo) [Compound 83, ((7-(((3S,6S,10aS)-3-(rel-(trans)-3-cyano-4-(2-oxo-1,2-dihydropyridin-4-yl)pyrrolidine-1-carbonyl)-5-oxodecahydropyrrolo [1,2-a]azocin-6-yl)carbamoyl)naphthalen-2-yl)difluoromethyl) phosphonic acid] are 100 to 1000 nM and at most 300 nM.
The corresponding values for `C[C@]1(NC(=O)c2cc3cc(C(F)(F)P(=O)(O)O)ccc3s2)CCCC[C@H]2CC[C@@H](C(=O)N3C[C@H](c4ccccc4)[C@@H](C#N)C3)N2C1=O` (relative stereo) [Compound 84, ((2-(((3S,6S,10aS)-3-(rel-(trans)-3-cyano-4-phenylpyrrolidine-1-carbonyl)-6-methyl-5-oxodecahydropyrrolo [1,2-a]azocin-6-yl)carbamoyl)benzo[b]thiophen-5-yl)difluoromethyl) phosphonic acid] are 100 to 1000 nM and 300 to 3000 nM.
In the case of `N#C[C@@H]1CN(C(=O)[C@@H]2CC[C@@H]3CCCC[C@H](NC(=O)c4cc5cc(C(F)(F)P(=O)(O)O)ccc5s4)C(=O)N32)C[C@H]1c1cc[nH]c(=O)c1` (relative stereo) [Compound 86, ((2-(((3S,6S,10aS)-3-(rel-(trans)-3-cyano-4-(2-oxo-1,2-dihydropyridin-4-yl)pyrrolidine-1-carbonyl)-5-oxodecahydropyrrolo [1,2-a]azocin-6-yl)carbamoyl)benzo[b]thiophen-5-yl)difluoromethyl) phosphonic acid], the results for the IC50 in assay [1] (setting [3]) and in assay [2] (setting [4]) were 100 to 1000 nM and at most 300 nM, respectively.
As to `N#C[C@H]1CN(C(=O)[C@@H]2CC[C@@H]3CCCC[C@H](NC(=O)c4cc5cc(C(F)(F)P(=O)(O)O)ccc5s4)C(=O)N32)C[C@H]1c1ccccc1` (relative stereo) [Compound 92, ((2-(((3S,6S,10aS)-3-(rel-(trans)-3-cyano-4-phenylpyrrolidine-1-carbonyl)-5-oxodecahydropyrrolo [1,2-a]azocin-6-yl)carbamoyl)benzo[b]thiophen-5-yl)difluoromethyl) phosphonic acid], the IC50 was in the range of 100 to 1000 nM in assay [1] (setting [3]) and 300 to 3000 nM in assay [2] (setting [4]).
The matching figures for `N#C[C@@H]1CN(C(=O)[C@@H]2CC[C@@H]3CCCC[C@H](NC(=O)c4cc5cc(C(F)(F)P(=O)(O)O)ccc5s4)C(=O)N32)C[C@H]1c1ccccc1` (relative stereo) [Compound 95, ((2-(((3S,6S,10aS)-3-(rel-(trans)-3-cyano-4-phenylpyrrolidine-1-carbonyl)-5-oxodecahydropyrrolo [1,2-a]azocin-6-yl)carbamoyl)benzo[b]thiophen-5-yl)difluoromethyl) phosphonic acid]: 100 to 1000 nM and at most 300 nM.
As for `N#C[C@@H]1CN(C(=O)[C@@H]2CC[C@@H]3CCC[C@H](NC(=O)c4cc5cc(C(F)(F)P(=O)(O)O)ccc5s4)C(=O)N32)C[C@H]1c1ccccc1` (relative stereo) [Compound 96, ((2-(((3S,6S,9aS)-3-(rel-(trans)-3-cyano-4-phenylpyrrolidine-1-carbonyl)-5-oxooctahydro-1H-pyrrolo [1,2-a]azepin-6-yl)carbamoyl)benzo[b]thiophen-5-yl)difluoromethyl) phosphonic acid], the results for the IC50 in assay [1] (setting [3]) and in assay [2] (setting [4]) were 100 to 1000 nM and at most 300 nM, respectively.
As to `N#C[C@@H]1CN(C(=O)[C@@H]2CC[C@@H]3CCCC[C@H](NC(=O)c4cc5cc(C(F)(F)P(=O)(O)O)ccc5s4)C(=O)N32)C[C@H]1C1CC1` (relative stereo) [Compound 102, ((2-(((3S,6S,10aS)-3-(rel-(trans)-3-cyano-4-cyclopropyl-pyrrolidine-1-carbonyl)-5-oxodecahydropyrrolo [1,2-a]azocin-6-yl)carbamoyl)benzo[b]thiophen-5-yl)difluoromethyl) phosphonic acid], the IC50 in assay [1] (setting [3]) was in the range of 100 to 1000 nM; in assay [2] (setting [4]) it was 300 to 3000 nM.
Consider `N#C[C@H]1[C@H](c2ccccc2)CN(C(=O)[C@@H]2CC[C@@H]3CCCC[C@H](NC(=O)c4cc5cc(C(F)P(=O)(O)O)ccc5s4)C(=O)N32)C12CC2` (relative stereo) [Compound 229, ((2-(((3S,6S,10aS)-3-((rel-trans)-7-cyano-6-phenyl-4-azaspiro[2.4]heptane-4-carbonyl)-5-oxodecahydropyrrolo[1,2-a]azocin-6-yl)carbamoyl)benzo[b]thiophen-5-yl)fluoromethyl)phosphonic acid], for which the IC50 in assay [1] (setting [5]) was 1000 to 10000 nM; in assay [2] (setting [6]), at most 300 nM.
The matching figures for `COc1ncccc1[C@@H]1CN(C(=O)[C@@H]2CC[C@@H]3CCCC[C@H](NC(=O)c4cc5cc(C(F)P(=O)(O)O)ccc5s4)C(=O)N32)C[C@H]1C#N` (relative stereo) [Compound 230, ((2-(((3S,6S,10aS)-3-((rel-trans)-3-cyano-4-(2-methoxypyridin-3-yl)pyrrolidine-1-carbonyl)-5-oxodecahydropyrrolo[1,2-a]azocin-6-yl)carbamoyl)benzo[b]thiophen-5-yl)fluoromethyl)phosphonic acid]: 1000 to 10000 nM and at most 300 nM.
